Results published in patent US5077289A (priority 1989, dated 1991).
Where a name gives a salt, the structure may show the parent alone. Read-outs that look alike come from different tables or passages of the source.

Experiments:
[1] = system: Scopolamine Induced Memory Deficit; assay: Dark Avoidance Assay (reversal of scopolamine induced memory deficit); type: in vivo; conditions: mice, s.c.
Experimental: In this assay mice are tested for their ability to remember an unpleasant stimulus for a period of 24 hours. A mouse is placed in a chamber that contains a dark compartment; a strong incandescent light drives it to the dark compartment, where an electric shock is administered through metal plates on the floor. The animal is removed from the testing apparatus and tested again, 24 hours later, for the ability to remember the electric shock.
If scopolamine, an anticholinergic that is known to cause memory impairment, is administered before an animal's initial exposure to the test chamber, the animal re-enters the dark compartment shortly after being placed in the test chamber 24 hours later. This effect of scopolamine is blocked by an active test compound, resulting in a greater interval before re-entry into the dark compartment.
The results for an active compound are expressed as the percent of a group of animals in which the effect of scopolamine is blocked, as manifested by an increased interval between being placed in the test chamber and re-entering the dark compartment.

[2] = system: 2-phenyl-1,4-benzoquinone-induced writhing; assay: Inhibition of phenylquinone-induced writhing in mice (PQW), analgesic activity; type: in vivo, mice (male CD-1 Charles River); conditions: Mus musculus, sc, read-out: ANALGESIC ACTIVITY, POW (ED50)
Experimental: Compounds I of the present invention are also useful as analgesic agents due to their ability to alleviate pain in mammals. […] Exptl. Biol. Med., 95, 729 (1957)].
A 0.125% concentration of phenyl-p-benzoquinone in a 5% aqueous solution of ethyl alcohol is administered to mice (10 mL/kg, ip). This produces a characteristic "writhe" which is defined as an inward rotation of one or more feet with twisting and turning of the trunk, drawing in of the abdominal wall, lordosis, and arching of the back. A total of 28 male CD-1 Charles River mice (18-30 g) are employed for a time-response. Animals receive food and water ad libitum during their stay in the animal quarters prior to testing. Compounds are tested at 20 mg/kg, sc and are prepared with distilled water, and if insoluble one drop of Tween-80, a surfactant is added. Compounds are administered in a dosage volume of 10 mL/kg.
Twenty mice (five per group) are administered the test compound at various pretreat time (e.g., 15, 30, 45, and 60 min) prior to phenylquinone injection. Control animals (two per group) receive an equal volume of vehicle. After the administration of phenylquinone, the mice are placed separately into 1-L beakers, and 5 min are allowed to elapse. The mice are then observed for a period of 10 min, and the number of writhers is recorded for each animal. The formula for computing percent inhibition is [formula]
The time period with the maximum percent of inhibition is considered the peak time. A dose-response is reserved for interesting compounds or those which inhibit writhing by 70% or more. A dose-response is run in the same manner as a time-response except 10 animals per group are tested at the peak time of drug activity. Fifty animals, divided among four drug groups and one vehicle control group, are employed. The mice are normally given four doses of drug, each twice the amount of the preceding dose. An ED50 is calculated by a computer linear regression analysis.
Results of this assay for some of the compounds of this invention and eseroline salicylate (reference compound) are shown in Table 3.

Brain AChE = molecular target: T1, Brain AChE (Rattus norvegicus, UniProt P37136); assay: In vitro inhibition of acetylcholinesterase activity in rat striatum (modified Ellman); type: biochemical, rat (male Wistar)
T1 construct: brains rapidly removed, corpora striata dissected free, weighed and homogenized in 19 volumes; from tissue; host or cells: corpus striatum homogenate of male Wistar rats
T1 sequence (P37136 32-614): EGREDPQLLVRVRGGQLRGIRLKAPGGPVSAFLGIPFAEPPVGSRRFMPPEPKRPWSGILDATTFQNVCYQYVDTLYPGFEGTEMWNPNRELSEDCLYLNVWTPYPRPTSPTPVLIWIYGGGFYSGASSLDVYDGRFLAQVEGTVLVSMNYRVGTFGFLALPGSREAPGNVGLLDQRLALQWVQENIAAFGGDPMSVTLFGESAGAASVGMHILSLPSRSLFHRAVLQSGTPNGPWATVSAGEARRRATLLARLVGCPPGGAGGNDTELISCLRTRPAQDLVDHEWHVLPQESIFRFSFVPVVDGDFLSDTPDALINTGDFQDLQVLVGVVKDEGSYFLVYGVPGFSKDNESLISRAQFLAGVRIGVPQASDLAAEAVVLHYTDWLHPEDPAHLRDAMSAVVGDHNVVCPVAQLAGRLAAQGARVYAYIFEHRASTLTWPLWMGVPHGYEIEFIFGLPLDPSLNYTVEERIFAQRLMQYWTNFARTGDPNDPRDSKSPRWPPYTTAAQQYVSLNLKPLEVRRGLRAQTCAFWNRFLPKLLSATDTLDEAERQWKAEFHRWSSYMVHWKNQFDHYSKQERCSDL
Experimental: Cholinesterases are found throughout the body, both in the brain and in serum. However, only brain acetylcholinesterase (AChE) distribution is correlated with central cholinergic innervation.
This is a modification of the method of Ellman et al., Biochem. Pharmacol. 7, 98 (1961).
1. 0.05M Phosphate buffer, pH 7.2
(a) 6.85 g NaH2 PO4 .cndot.H2 O/100 ml distilled H2 O
(c) add (a) to (b) until pH reaches 7.2
(a) 9.9 mg 5,5-dithiobisnitrobenzoic acid (DTNB) (0.25 mM)
(c) q.s. to 100 ml with 0.05M phosphate buffer, pH 7.2 (reagent 1)
3. For most assays, a […] stock solution of the test drug is made up in a suitable solvent and serially diluted such that the final concentration in the preincubation step ranges from 10^-3 to 10^-6 M. Different concentrations may be used depending on the potency of the drug. […]
Following the 10 minute preincubation of the tissue (enzyme) with the inhibitor, the samples are mixed with the substrate chromogen buffer by the ABA-100. Using the indicated instrument settings the ABA-100 automatically reads the color reaction and prints out the results in enzyme units after 15 minutes.
2. The enzyme activity can also be measured with a Gilford 250 spectrophotometer. […]
The uninhibited activity of the enzyme (tissue homogenate) is first determined. […] The reaction rate is determined by the slope of the recorded absorbance change. […]

Row | SMILES | ED50 [2] [mg/kg] | % of Animals with Scopolamine Induced Memory Deficit Reversal ([1]; 0.16 mg/kg of body weight) [%] | other results
1 | CNC(=O)Oc1ccc2c(c1)[C@]1(C)CCN(C)[C@@H]1N2C [Physostigmine, reference compound] |  |  | % of Animals with Scopolamine Induced Memory Deficit Reversal ([1]; 0.31 mg/kg of body weight): 20%
2 | CNC(=O)N(C)C(=O)Oc1cc(C)c2c(c1)[C@]1(C)CCN(C)[C@@H]1N2C [Example 2, (3aS-cis)-1,2,3,3a,8,8a-Hexahydro-1,3a,7,8-tetramethylpyrrolo[2,3-b]indol-5-yl methyl[(methylamino)carbonyl] carbamate] | 0.81 |  | 
3 | CN1CC[C@@]2(C)c3cc(O)ccc3N(C)[C@@H]12 [Eseroline Salicylate, reference compound] |  |  | ED50 ([2]; mice, s.c., ED50 by linear regression per method, at peak time): 0.52 mg/kg
4 | CNC(=O)N(C)C(=O)Oc1ccc2c(c1)[C@]1(C)CCN(C)[C@@H]1N2C [Example 1, (3aS-cis)-1,2,3,3a,8,8a-Hexahydro-1,3a,8-trimethylpyrrolo[2,3-b]indol-5-yl methyl[(methylamino)carbonyl] carbamate] | 8 | 20 | 
5 | CN(C(=O)Nc1cccc(Cl)c1)C(=O)Oc1ccc2c(c1)[C@]1(C)CCN(C)[C@@H]1N2C [Example 5, (3aS-cis)-1,2,3,3a,8,8a-Hexahydro-1,3a,8-trimethylpyrrolo[2,3-b]indol-5-yl methyl[[(3-chlorophenyl)amino]carbonyl] carbamate] | 0.15 |  | IC50 (Brain AChE): 207 nM
6 | CCCNC(=O)N(CCC)C(=O)Oc1ccc2c(c1)[C@]1(C)CCN(C)[C@@H]1N2C [Example 4, (3aS-cis)-1,2,3,3a,8,8a-Hexahydro-1,3a,8-trimethylpyrrolo[2,3-b]indol-5-yl propyl[(propylamino)carbonyl] carbamate oxalate] |  | 40 | % of Animals with Scopolamine Induced Memory Deficit Reversal ([1]; 2.50 mg/kg of body weight): 36%
